According to ChEMBL document CHEMBL1148306, “Reducing the peptidyl features of caspase-3 inhibitors: a structural analysis” (J Med Chem, 2004):

Biological target: T1, Caspase-3 (Homo sapiens, UniProt P42574)
T1 sequence (P42574 whole entry): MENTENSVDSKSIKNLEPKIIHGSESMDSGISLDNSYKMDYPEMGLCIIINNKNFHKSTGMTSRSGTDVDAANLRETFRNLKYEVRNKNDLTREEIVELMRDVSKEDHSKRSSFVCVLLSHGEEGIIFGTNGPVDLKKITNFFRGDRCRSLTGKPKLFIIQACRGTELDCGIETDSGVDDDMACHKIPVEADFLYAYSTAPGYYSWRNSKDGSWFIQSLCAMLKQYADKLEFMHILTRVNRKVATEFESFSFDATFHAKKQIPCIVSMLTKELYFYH
Assay: Inhibitory concentration of compound against caspase-3

COc1ccc(Br)cc1CC(=O)N[C@H](C(=O)N[C@@H](CC(=O)O)C(=O)CSCc1ccccc1)C(C)C
IC50: 0.0177 µM
